Series [1] has as its system S. mutans/S. gordonii/S. sanguinis 3-species biofilms. Nature of the series: 3-species biofilm imaging (EPS, dead/live, FISH) and quantitative PCR. The series is classed as cell-based. The method, then:
To form 3-species biofilms, bacterial suspensions were mixed to obtain an inoculum consisting of S. mutans, S. gordonii, and S. sanguinis (1 × 10^5 CFU/ml for each strain, inoculum ratio = 1:1:1) in BHIS broth as described previously. The inoculum (250 μl) was added into the chemotaxis chamber (μ-slide 8well, 80,826; Ibidi) and incubated for 24 h. After the multispecies biofilms were formed, they were treated with different concentrations of II-6s, CHX and PBS for 5 days (5 min, three times per day).
For EPS staining, 2.5 μM Alexa Fluor 647-labeled dextran conjugate (Molecular Probes) was added to the culture medium from the beginning of the biofilm formation, and the bacteria were stained with 2.5 μM SYTO 9 (Molecular Probes, Invitrogen) for 15 min after biofilms formed. The biofilms were imaged with a DMIRE2 confocal laser scanning microscope (Leica, Wetzlar, Germany) equipped with a 60 × oil immersion lens.
For dead/live imaging, multispecies biofilms were stained with the Live/Dead BacLight Bacterial Viability Kit (Molecular Probes, Invitrogen), and the reagents were applied to the biofilms at final concentrations of 2.5 μM SYTO 9 and 2.5 μM propidium iodide for 15 min. Live/Dead staining is a measure of membrane damage since SYTO 9 penetrates intact cytoplasmic membranes, while propidium iodide is only able to penetrate damaged membranes. The dyed biofilms were imaged with a Leica DMIRE2 confocal laser scanning microscope as in EPS staining.
For fluorescent in situ hybridization imaging, biofilms were fixed in 4% paraformaldehyde overnight and investigated by species-specific probes (Table S1) as described previously [[30–32]]. In brief, prehybridization (15 min, 46°C) was performed in 250 μl hybridization buffer with 20% formamide in the absence of any oligonucleotide probes. The incubation time for the hybridization was almost 90 min at 46°C in the dark. After the incubation, biofilms were transferred into washing buffer preheated to 48°C and incubated for 15 min at this temperature. After staining, the biofilms were imaged with a Leica DMIRE2 confocal laser scanning microscope as in EPS staining.
Each biofilm was scanned at five randomly selected positions and the experiments were performed in triplicates on three independent occasions. All three-dimensional reconstructions of the biofilms were processed with Imaris, version 7.2.3 (Bitplane, Zürich, Switzerland), and the quantification of fluorescence levels was performed with ImageJ (with the plugin COMSTAT) (National Institutes of Health, Bethesda, MD).
Total DNA of biofilms was isolated and purified using a TIANamp Bacteria DNA kit (Tiangen, Beijing, China). The bacteria were lysed using enzymatic lysis buffer (20 mM Tris-HCl, pH 8.0, 2 mM sodium EDTA, and 1.2% Triton X-100) containing 25 mg/ml of lysozyme at 37°C for 1.5 h. The purity and concentration of DNA were determined by a NanoDrop 2000 spectrophotometer (Thermo Scientific, Waltham, MA, USA). The extracts were placed at −20°C before use. TaqMan real-time PCR (Life Technologies, Carlsbad, CA, USA) was applied to quantify the absolute number of S. mutans, S. gordonii and S. sanguinis as described by the manufacturer (TaKaRa, Dalian, China). The sequences of primers (Table S2) were in accordance with previous studies. The standard curves of these bacteria were plotted using cycle values of DNA, which stands for corresponding concentrations of bacteria from 1 × 10^8 CFU/ml to 1 × 10^4 CFU/ml (Figure S1). The number of each strain within 3-species biofilms was calculated based on standard curves. The experiment was conducted in triplicates and repeated three times.

Another series relates to S. mutans. Nature of the series: Bacterial drug resistance assay (MIC after repeated passages). The class given is cell-based, Streptococcus mutans UA159. The following applies: for change of MIC / induction of drug resistance after repeated exposure: 15 passages. The method, then:
To examine whether S. mutans could develop drug resistance against II-6s, MIC measurements after repeated successive passages were performed to analyze the antimicrobial resistance, following a previous method. The MIC values of II-6s against S. mutans were tested as described above. After the initial MIC was determined, 20 µl of bacterial suspension in a well showing 1/2 MIC was mixed with 1,980 µl of BHI medium to eliminate the influence of residual drug. A volume of 50 µl of the resultant bacterial suspension was then inoculated onto a BHI agar plate followed by incubation at 37°C for 48 h. The colonies grown on the agar plate were again suspended in BHI broth. The overnight bacterial suspensions were diluted to a concentration of 1 × 10^7 CFU/ml for the next MIC test. The same procedure was repeatedly performed for 15 passages. An increase of four-fold or higher in MIC over the initial MIC was considered to be the standard for inducing resistance to an antibacterial agent. The assay was done in triplicates and repeated three times.

Details of series [2]: method as in PMID 29355409. The following applies: 0.12% CHX daily for a week, repeated every month; in 18 months; cited from earlier work.
A short description of series [3]: In vitro cytotoxicity assay (CCK-8). The class given is cell-based. The conditions noted are these: mouse, RAW264.7 macrophages; RAW264.7, 5 min exposure. The method, then:
(§1) The cytotoxicity of II-6s was evaluated by the Cell Counting Kit-8 (CCK-8; Dojindo, Kumamoto, Japan) assay as described by Park et al.. Human gingival epithelial cells (HGE), human oral keratinocytes (HOK) and macrophages RAW264.7 (RAW264.7) were provided by the State Key Laboratory of Oral Diseases, Sichuan University, China. HGE, HOK and RAW264.7 were grown in Dulbecco’s modified Eagle’s medium (DMEM; GibcoTM, Invitrogen, Carlsbad, CA, USA) supplemented with 10% fetal bovine serum (FBS; Invitrogen) and 1% penicillin–streptomycin solution (Invitrogen) and cultured at 37°C in a humidified atmosphere containing 5% CO2. All cells were inoculated into 96 well plates at a density of 1 × 10^4 cells per well for 24 h and then treated with II-6s (0.98 to 500 μg/ml) for 5 min or 24 h. The positive control was treated with CHX (0.98 to 500 μg/ml) at the same time. After treatment, the wells were washed with sterile PBS and fresh medium was added. 10 μl of CCK-8 solution (10 μl) was added to each well and incubated for 1.5 h. The absorbance of each well was measured at the wavelength of 450 nm against a blank which contained medium only. Cell viability was calculated according to the following formula: percent viability = (A450 of treated group − A450 of blank control)/(A450 of negative control − A450 of blank control) × 100%. The experiment was conducted in triplicates and repeated three times.

The test system of another series is macrophages RAW264.7. Nature of the series: In vitro cytotoxicity assay (CCK-8). The series is classed as cell-based. The conditions noted are these: RAW264.7, 24 h exposure. The method, then: as §1
Setting [4] is: 5 days, 5 min three times per day.

Converted amounts (≈) assume the structure as drawn.

Regarding `[H]/N=C(\N/C(=N/[H])NCCCCCCNC(=N)NC(=N)Nc1ccc(Cl)cc1)Nc1ccc(Cl)cc1` [CHX, Chlorhexidine digluconate, reference compound], the “EPS/bacteria ratio of the biofilms” value in series [1] (setting [4]) is listed as “neither II-6s nor CHX treatment altered the EPS/bacteria ratio”. Also, the “change of MIC / induction of drug resistance after repeated exposure” value in the series on S. mutans was “increased by four times at the 15th passage”. Moreover, the “patients at high caries risk reduced to moderate or low risk” value in series [2] is “approximately 70%”.

As usually defined, the IC50 is the concentration at which inhibition is half-maximal. The term MIC denotes the smallest concentration in the dilution series that meets the test's criterion for growth inhibition. As for `CC(C)(Cc1ccc2ccccc2c1)NC[C@H](O)CNc1cc(C(F)(F)F)cc(C(F)(F)F)c1` [II-6s, (S)-1-((3,5-bis(trifluoromethyl)phenyl)amino)-3-((2-methyl-1-(naphthalen-2-yl)propan-2-yl)amino)propan-2-ol], in series [1] (setting [4]), the “EPS/bacteria ratio of the biofilms” value is recorded as “neither II-6s nor CHX treatment altered the EPS/bacteria ratio” and the “microbial composition within 3-species biofilms (FISH, quantitative PCR)” value is on record as “effectively reduced the total biomass of streptococci but did not specifically reduce the cariogenic S. mutans”. For the same compound, the “dead/live bacteria ratio of biofilm” value in series [1] (II-6s 125 μg/ml, vs 0.2% of CHX) is listed as “even higher than that treated with 0.2% of CHX”. The “dead/live bacteria ratio of biofilms” value in series [1] (II-6s 31.25 to 125 μg/ml, vs non-treated control) is “significantly higher than that of the non-treated control”. For the same compound, in series [1] (II-6s 31.25 to 125 μg/ml, 5 days, 5 min three times per day), the “reduction of bacterial biomass and EPS production” value is “equivalent ability to reduce bacterial biomass and EPS production as compared to 0.2% of CHX”. This compound also returned an IC50 at 5 min in series [3] greater than 125 µg/mL. Also, in the series on macrophages RAW264.7, the “IC50 (cytotoxicity), compared with CHX” value is “higher than that of CHX”. The “change of MIC / induction of drug resistance after repeated exposure” value in the series with S. mutans was “did not induce drug resistance”. For the same compound, the minimal inhibitory concentration (MIC) in the series with S. mutans (Streptococcus mutans, read-out: MIC against S. mutans during passaging) worked out at 3.91 µg/mL (≈ 8.07 µM).

Source of the values: article PMC8018465, “Antimicrobial activities of a small molecule compound II-6s against oral streptococci” (Journal of Oral Microbiology, 2021).
